Where “and” joins values, the source holds several entries; their conditions need not be identical. Equal values may be shown once.
How the values were obtained:
Coronavirus (hCoV-229E) = assay: Inactivation efficiency against coronavirus hCoV-229E strain (residual TCID50 on Huh-7 cells); format: cell-based; conditions: for CPE test (virus replication in cell wells): wells 1-10; for average inactivation efficiency against virus / inactivation efficiency against the virus: hCoV-229E virus; for average inactivation efficiency against virus: three experiments; for inactivation efficiency against the virus: single experiment
[1] = rats, intragastric decaffeinated green tea (DGT) 200 mg/kg; cited from earlier work

O=C(O[C@@H]1Cc2c(O)cc(O)cc2O[C@@H]1c1cc(O)c(O)c(O)c1)c1cc(O)c(O)c(O)c1 [EGCG, Epigallocatechin gallate]
CPE test (virus replication in the cell wells) (Coronavirus (hCoV-229E); 1 mM EGCG + virus, co-incubated 5 minute, second experiment, dilution factor 10^8, wells 1-10): − | CPE test (virus replication in the cell wells) (Coronavirus (hCoV-229E); 1 mM EGCG + virus, co-incubated 5 minutes, dilution factor 10^1, wells 1-10, third experiment): + | CPE test (virus replication in the cell wells) (Coronavirus (hCoV-229E); 1 mM EGCG + virus, co-incubated 5 minutes, dilution factor 10^2, wells 1-10, third experiment): + | CPE test (virus replication in the cell wells) (Coronavirus (hCoV-229E); 1 mM EGCG + virus, co-incubated 5 minutes, dilution factor 10^3, wells 1-10, third experiment): + | CPE test (virus replication in the cell wells) (Coronavirus (hCoV-229E); 1 mM EGCG + virus, co-incubated 5 minutes, dilution factor 10^4, wells 1-10, third experiment): + | CPE test (virus replication in the cell wells) (Coronavirus (hCoV-229E); 1 mM EGCG + virus, co-incubated 5 minutes, dilution factor 10^5, wells 1-10, third experiment): + and − | CPE test (virus replication in the cell wells) (Coronavirus (hCoV-229E); 1 mM EGCG + virus, co-incubated 5 minutes, dilution factor 10^6, wells 1-10, third experiment): − and + | CPE test (virus replication in the cell wells) (Coronavirus (hCoV-229E); 1 mM EGCG + virus, co-incubated 5 minutes, dilution factor 10^7, wells 1-10, third experiment): − | CPE test (virus replication in the cell wells) (Coronavirus (hCoV-229E); 1 mM EGCG + virus, co-incubated 5 minutes, dilution factor 10^8, wells 1-10, third experiment): − | CPE test (virus replication in cell wells) (Coronavirus (hCoV-229E); 1 mM EGCG + virus, hCoV-229E co-incubated 1 minute, second experiment, dilution factor 10^1): + | CPE test (virus replication in cell wells) (Coronavirus (hCoV-229E); 1 mM EGCG + virus, hCoV-229E co-incubated 1 minute, second experiment, dilution factor 10^2): + | CPE test (virus replication in cell wells) (Coronavirus (hCoV-229E); 1 mM EGCG + virus, hCoV-229E co-incubated 1 minute, second experiment, dilution factor 10^3): + | CPE test (virus replication in cell wells) (Coronavirus (hCoV-229E); 1 mM EGCG + virus, hCoV-229E co-incubated 1 minute, second experiment, dilution factor 10^4): + and − | CPE test (virus replication in cell wells) (Coronavirus (hCoV-229E); 1 mM EGCG + virus, hCoV-229E co-incubated 1 minute, second experiment, dilution factor 10^5): − and + | CPE test (virus replication in cell wells) (Coronavirus (hCoV-229E); 1 mM EGCG + virus, hCoV-229E co-incubated 1 minute, second experiment, dilution factor 10^6): − | CPE test (virus replication in cell wells) (Coronavirus (hCoV-229E); 1 mM EGCG + virus, hCoV-229E co-incubated 1 minute, second experiment, dilution factor 10^7): − | CPE test (virus replication in cell wells) (Coronavirus (hCoV-229E); 1 mM EGCG + virus, hCoV-229E co-incubated 1 minute, second experiment, dilution factor 10^8): − | CPE test (virus replication in cell wells) (Coronavirus (hCoV-229E); 1 mM EGCG + virus, hCoV-229E co-incubated 1 minute, third experiment, dilution factor 10^1): + | CPE test (virus replication in cell wells) (Coronavirus (hCoV-229E); 1 mM EGCG + virus, hCoV-229E co-incubated 1 minute, third experiment, dilution factor 10^2): + | CPE test (virus replication in cell wells) (Coronavirus (hCoV-229E); 1 mM EGCG + virus, hCoV-229E co-incubated 1 minute, third experiment, dilution factor 10^3): + | CPE test (virus replication in cell wells) (Coronavirus (hCoV-229E); 1 mM EGCG + virus, hCoV-229E co-incubated 1 minute, third experiment, dilution factor 10^4): + | CPE test (virus replication in cell wells) (Coronavirus (hCoV-229E); 1 mM EGCG + virus, hCoV-229E co-incubated 1 minute, third experiment, dilution factor 10^5): + and − | CPE test (virus replication in cell wells) (Coronavirus (hCoV-229E); 1 mM EGCG + virus, hCoV-229E co-incubated 1 minute, third experiment, dilution factor 10^6): − and + | CPE test (virus replication in cell wells) (Coronavirus (hCoV-229E); 1 mM EGCG + virus, hCoV-229E co-incubated 1 minute, third experiment, dilution factor 10^7): − | CPE test (virus replication in cell wells) (Coronavirus (hCoV-229E); 1 mM EGCG + virus, hCoV-229E co-incubated 1 minute, third experiment, dilution factor 10^8): − | average inactivation efficiency against virus (Coronavirus (hCoV-229E); 1 mM EGCG, 1 minute): 49.71% | inactivation efficiency against the virus (Coronavirus (hCoV-229E); 1 mM EGCG, 5 minutes): 49.88% and 36.90% | average inactivation efficiency against virus (Coronavirus (hCoV-229E); 1 mM EGCG, 5 minutes): 45.55% | CPE test (virus replication in cell wells) (Coronavirus (hCoV-229E); 5 mM EGCG + hCoV-229E virus, co-incubated 1 minute, first experiment, dilution factor 10^2): + | CPE test (virus replication in cell wells) (Coronavirus (hCoV-229E); 5 mM EGCG + hCoV-229E virus, co-incubated 1 minute, first experiment, dilution factor 10^3): + | CPE test (virus replication in cell wells) (Coronavirus (hCoV-229E); 5 mM EGCG + hCoV-229E virus, co-incubated 1 minute, first experiment, dilution factor 10^4): + | CPE test (virus replication in cell wells) (Coronavirus (hCoV-229E); 5 mM EGCG + hCoV-229E virus, co-incubated 1 minute, first experiment, dilution factor 10^5): + and − | CPE test (virus replication in cell wells) (Coronavirus (hCoV-229E); 5 mM EGCG + hCoV-229E virus, co-incubated 1 minute, first experiment, dilution factor 10^6): − | CPE test (virus replication in cell wells) (Coronavirus (hCoV-229E); 5 mM EGCG + hCoV-229E virus, co-incubated 1 minute, first experiment, dilution factor 10^7): − | CPE test (virus replication in cell wells) (Coronavirus (hCoV-229E); 5 mM EGCG + hCoV-229E virus, co-incubated 1 minute, first experiment, dilution factor 10^8): − | CPE test (virus replication in the cell wells) (Coronavirus (hCoV-229E); 5 mM EGCG + virus, co-incubated 5 minute, first experiment, dilution factor 10^2, wells 1-10): + | CPE test (virus replication in the cell wells) (Coronavirus (hCoV-229E); 5 mM EGCG + virus, co-incubated 5 minute, first experiment, dilution factor 10^3, wells 1-10): + | CPE test (virus replication in the cell wells) (Coronavirus (hCoV-229E); 5 mM EGCG + virus, co-incubated 5 minute, first experiment, dilution factor 10^4, wells 1-10): + | CPE test (virus replication in the cell wells) (Coronavirus (hCoV-229E); 5 mM EGCG + virus, co-incubated 5 minute, first experiment, dilution factor 10^5, wells 1-10): − and + | CPE test (virus replication in the cell wells) (Coronavirus (hCoV-229E); 5 mM EGCG + virus, co-incubated 5 minute, first experiment, dilution factor 10^6, wells 1-10): − | CPE test (virus replication in the cell wells) (Coronavirus (hCoV-229E); 5 mM EGCG + virus, co-incubated 5 minute, first experiment, dilution factor 10^7, wells 1-10): − | CPE test (virus replication in the cell wells) (Coronavirus (hCoV-229E); 5 mM EGCG + virus, co-incubated 5 minute, first experiment, dilution factor 10^8, wells 1-10): − | CPE test (virus replication in the cell wells) (Coronavirus (hCoV-229E); 5 mM EGCG + virus, co-incubated 5 minute, second experiment, dilution factor 10^2, wells 1-10): + | CPE test (virus replication in the cell wells) (Coronavirus (hCoV-229E); 5 mM EGCG + virus, co-incubated 5 minute, second experiment, dilution factor 10^3, wells 1-10): + | CPE test (virus replication in the cell wells) (Coronavirus (hCoV-229E); 5 mM EGCG + virus, co-incubated 5 minute, second experiment, dilution factor 10^4, wells 1-10): + | CPE test (virus replication in the cell wells) (Coronavirus (hCoV-229E); 5 mM EGCG + virus, co-incubated 5 minute, second experiment, dilution factor 10^5, wells 1-10): − and + | CPE test (virus replication in the cell wells) (Coronavirus (hCoV-229E); 5 mM EGCG + virus, co-incubated 5 minute, second experiment, dilution factor 10^6, wells 1-10): − and + | CPE test (virus replication in the cell wells) (Coronavirus (hCoV-229E); 5 mM EGCG + virus, co-incubated 5 minute, second experiment, dilution factor 10^7, wells 1-10): − | CPE test (virus replication in the cell wells) (Coronavirus (hCoV-229E); 5 mM EGCG + virus, co-incubated 5 minute, second experiment, dilution factor 10^8, wells 1-10): − | CPE test (virus replication in the cell wells) (Coronavirus (hCoV-229E); 5 mM EGCG + virus, co-incubated 5 minutes, dilution factor 10^1, wells 1-10, third experiment): + | CPE test (virus replication in the cell wells) (Coronavirus (hCoV-229E); 5 mM EGCG + virus, co-incubated 5 minutes, dilution factor 10^2, wells 1-10, third experiment): + | CPE test (virus replication in the cell wells) (Coronavirus (hCoV-229E); 5 mM EGCG + virus, co-incubated 5 minutes, dilution factor 10^3, wells 1-10, third experiment): + | CPE test (virus replication in the cell wells) (Coronavirus (hCoV-229E); 5 mM EGCG + virus, co-incubated 5 minutes, dilution factor 10^4, wells 1-10, third experiment): + | CPE test (virus replication in the cell wells) (Coronavirus (hCoV-229E); 5 mM EGCG + virus, co-incubated 5 minutes, dilution factor 10^5, wells 1-10, third experiment): + and − | CPE test (virus replication in the cell wells) (Coronavirus (hCoV-229E); 5 mM EGCG + virus, co-incubated 5 minutes, dilution factor 10^6, wells 1-10, third experiment): − and + | CPE test (virus replication in the cell wells) (Coronavirus (hCoV-229E); 5 mM EGCG + virus, co-incubated 5 minutes, dilution factor 10^7, wells 1-10, third experiment): − | CPE test (virus replication in the cell wells) (Coronavirus (hCoV-229E); 5 mM EGCG + virus, co-incubated 5 minutes, dilution factor 10^8, wells 1-10, third experiment): − | CPE test (virus replication in cell wells) (Coronavirus (hCoV-229E); 5 mM EGCG + virus, hCoV-229E co-incubated 1 minute, second experiment, dilution factor 10^2): + | CPE test (virus replication in cell wells) (Coronavirus (hCoV-229E); 5 mM EGCG + virus, hCoV-229E co-incubated 1 minute, second experiment, dilution factor 10^3): + and − | CPE test (virus replication in cell wells) (Coronavirus (hCoV-229E); 5 mM EGCG + virus, hCoV-229E co-incubated 1 minute, second experiment, dilution factor 10^4): + | CPE test (virus replication in cell wells) (Coronavirus (hCoV-229E); 5 mM EGCG + virus, hCoV-229E co-incubated 1 minute, second experiment, dilution factor 10^5): − and + | CPE test (virus replication in cell wells) (Coronavirus (hCoV-229E); 5 mM EGCG + virus, hCoV-229E co-incubated 1 minute, second experiment, dilution factor 10^6): − | CPE test (virus replication in cell wells) (Coronavirus (hCoV-229E); 5 mM EGCG + virus, hCoV-229E co-incubated 1 minute, second experiment, dilution factor 10^7): − | CPE test (virus replication in cell wells) (Coronavirus (hCoV-229E); 5 mM EGCG + virus, hCoV-229E co-incubated 1 minute, second experiment, dilution factor 10^8): − | CPE test (virus replication in cell wells) (Coronavirus (hCoV-229E); 5 mM EGCG + virus, hCoV-229E co-incubated 1 minute, third experiment, dilution factor 10^2): + | CPE test (virus replication in cell wells) (Coronavirus (hCoV-229E); 5 mM EGCG + virus, hCoV-229E co-incubated 1 minute, third experiment, dilution factor 10^3): + | CPE test (virus replication in cell wells) (Coronavirus (hCoV-229E); 5 mM EGCG + virus, hCoV-229E co-incubated 1 minute, third experiment, dilution factor 10^4): + | CPE test (virus replication in cell wells) (Coronavirus (hCoV-229E); 5 mM EGCG + virus, hCoV-229E co-incubated 1 minute, third experiment, dilution factor 10^5): + and − | CPE test (virus replication in cell wells) (Coronavirus (hCoV-229E); 5 mM EGCG + virus, hCoV-229E co-incubated 1 minute, third experiment, dilution factor 10^6): − and + | CPE test (virus replication in cell wells) (Coronavirus (hCoV-229E); 5 mM EGCG + virus, hCoV-229E co-incubated 1 minute, third experiment, dilution factor 10^7): − | CPE test (virus replication in cell wells) (Coronavirus (hCoV-229E); 5 mM EGCG + virus, hCoV-229E co-incubated 1 minute, third experiment, dilution factor 10^8): − | inactivation efficiency against the virus (Coronavirus (hCoV-229E); 5 mM EGCG, 1 minute): 68.38% and 49.88% | average inactivation efficiency against virus (Coronavirus (hCoV-229E); 5 mM EGCG, 1 minute): 62.21% | inactivation efficiency against the virus (Coronavirus (hCoV-229E); 5 mM EGCG, 5 minutes): 60.19% and 36.90% and 49.88% | average inactivation efficiency against virus (Coronavirus (hCoV-229E); 5 mM EGCG, 5 minutes): 48.99% | bioavailability of EGCG [1]: 0.1%

Reference: US20240238242A1, “EGCG buccal tablet and use thereof” (priority 2023, published 2024)
